Source: patent US20250353873A1, “COMPOUNDS AND METHODS FOR MODULATING APOE EXPRESSION” (Ionis Pharmaceuticals, Inc., priority 2024, published 2025)
Several values for one entry are separate records, joined by “and”; a condition that tells them apart may be missing. Equal entries are not always repeated. Marks after values point to notes of the source that are not given here. Strand notation (5' to 3'): a small letter for the sugar, then the base; units joined by * are phosphorothioate-linked, units joined directly phosphodiester-linked; [ ] holds rarer units or linkages, { } end groups; capitals alone tell only the bases. [ms] = mesyl phosphoramidate linkage; e = 2'-O-(2-methoxyethyl) (MOE); k = constrained ethyl (cEt); [5mC] = 5-methylcytosine; d = 2'-deoxy (DNA)

What was measured:
[1] = test system: human APOE RNA; assay: Duration of action study in APOE C57BL/6NTac-Apoeem7250 knock-in mice (Example 18); format: in vivo
Method: Modified oligonucleotides described above were tested in the APOE C57BL/6NTac-Apoeem7250 knock-in model (described above).
Each mouse received a single intracerebroventricular (ICV) bolus of 300 μg of modified oligonucleotide. A group of 4-6 mice received a single ICV bolus with PBS as a negative control.
Mice were sacrificed at various timepoints as indicated in the table below and RNA was extracted from cortical brain tissue and spinal cord for quantitative real-time RT-PCR analysis of RNA expression of APOE using primer probe set RTS3073 (described herein above). APOE RNA levels were normalized to mouse Ppia. Mouse Ppia was amplified using primer probe set m_cyclo24 (described herein above). Results are presented as percent human APOE RNA relative to the amount of human APOE RNA in PBS treated animals, (% control). Each experiment is identified in separate tables below.

[2] = test system: human APOE RNA; assay: Dose-dependent reduction of human APOE RNA in HepG2 cells, electroporation, 20,000 cells per well, normalized to PPIA (Example 4, Table 11); format: cell-based; conditions: HepG2 cells, 20,000 cells per well, approximately 24 hours; for APOE RNA (% UTC) 5 nM / APOE RNA (% UTC) 13 nM / APOE RNA (% UTC) 33 nM / APOE RNA (% UTC) 82 nM / APOE RNA (% UTC) 205 nM / APOE RNA (% UTC) 512 nM / IC50: PPIA-normalized; for APOE RNA (% UTC) 1,280 nM: PPIA-normalized, 1,280 nM; for APOE RNA (% UTC) 3,200 nM: PPIA-normalized, 3,200 nM; for APOE RNA (% UTC) 8,000 nM: PPIA-normalized, 8,000 nM; for APOE RNA (% UTC) 20,000 nM: PPIA-normalized, 20,000 nM; for IC50: reduction of human APOE RNA
Method: HepG2 cells plated at a density of 20,000 cells per well were treated by electroporation with various concentrations of modified oligonucleotide as specified in the tables below. […] APOE RNA levels were measured using the human primer probe set RTS3073 (described herein above). APOE RNA levels were normalized to human PPIA. Human PPIA was amplified using human primer probe set mk_cycloA_2nd (forward sequence […], designated herein as SEQ ID NO: 13; reverse sequence […], designated herein as SEQ ID NO: 14; probe sequence […], designated herein as SEQ ID NO: 15). Normalized results are presented in the table below as percent APOE RNA, relative to the amount of APOE RNA in untreated control cells (% UTC). The half maximal inhibitory concentration (IC50) of each modified oligonucleotide was calculated in GraphPad Prism 10 (GraphPad Software, San Diego, CA) and is also presented in the table below.

[3] = test system: human APOE RNA; assay: Potency (dose response, ED50) in APOE C57BL/6NTac-Apoeem7250 knock-in mice, 8 weeks (Example 15); format: in vivo
Method: Modified oligonucleotides described above were tested in the APOE C57BL/6NTac-Apoeem7250 knock-in mouse model described above.
APOE C57BL/6NTac-Apoeem7250 knock-in mice were divided into groups of 3-4 mice each. A group of 4 mice received a single ICV bolus with PBS as a negative control.
Eight weeks post treatment, mice were sacrificed, and RNA was extracted from cortical brain tissue and spinal cord for quantitative real-time RT-PCR analysis of RNA expression of […] using human primer probe set RTS3073 (described herein above). APOE RNA levels were normalized to mouse Ppia. Mouse Ppia was amplified using primer probe set m_cyclo24 (described herein above). Results are presented as percent human APOE RNA relative to the amount of APOE RNA in PBS treated animals, (% control). N.C. indicates values that were not calculated.
The half maximal effective dose (ED50) of each modified oligonucleotide was calculated using GraphPad Prism 10 software (GraphPad Software, San Diego, CA).

[4] = 196 days post-dose, single ICV bolus 300 μg, APOE knock-in mice, normalized to mouse Ppia, relative to PBS
[5] = 224 days post-dose, single ICV bolus 300 μg, APOE knock-in mice, normalized to mouse Ppia, relative to PBS
[6] = 285 days post-dose, single ICV bolus 300 μg, APOE knock-in mice, normalized to mouse Ppia, relative to PBS
[7] = single ICV bolus, GraphPad Prism 10

Substance | APOE RNA (% control) Cortex ([1]; 300 μg ICV, 28 days post-dose) | APOE RNA (% control) Cortex ([1]; 300 μg ICV, 112 days post-dose) | APOE RNA (% control) Cortex ([1]; 300 μg ICV, 140 days post-dose) | APOE RNA (% control) Cortex [1, 4] | APOE RNA (% control) Cortex [1, 5] | APOE RNA (% control) Cortex [1, 6] | APOE RNA (% control) Spinal Cord ([1]; 300 μg ICV, 28 days post-dose) | APOE RNA (% control) Spinal Cord ([1]; 300 μg ICV, 112 days post-dose) | APOE RNA (% control) Spinal Cord ([1]; 300 μg ICV, 140 days post-dose) | APOE RNA (% control) Spinal Cord [1, 4] | APOE RNA (% control) Spinal Cord [1, 5] | APOE RNA (% control) Spinal Cord [1, 6] | APOE RNA (% UTC) 5 nM [2] | APOE RNA (% UTC) 13 nM [2] | APOE RNA (% UTC) 33 nM [2] | APOE RNA (% UTC) 82 nM [2] | APOE RNA (% UTC) 205 nM [2] | APOE RNA (% UTC) 512 nM [2] | APOE RNA (% UTC) 1,280 nM [2] | APOE RNA (% UTC) 3,200 nM [2] | other results
Aks^mCeoTeoTesGesGksTdsGdzAdzAdzTds^mCdsTdsTdsTdsAdzTksTksAesAe (kA*e[5mC]eTeT*eG*kG*dT*dG[ms]dA[ms]dA[ms]dT*d[5mC]*dT*dT*dT*dA[ms]kT*kT*eA*eA) [Compound No. 1809635] | 29 % control and 25 % control | 24 % control and 35 % control | 52‡ % control | 50 % control | 55 % control | 67 % control | 11 % control and 18 % control | 13 % control and 14 % control | 27‡ % control | 33 % control | 26 % control | 41 % control | 105 % UTC | 87 % UTC | 78 % UTC | 66 % UTC | 55 % UTC | 31 % UTC | 18 % UTC | 16 % UTC | APOE RNA (% control) Cortex ([1]; 300 μg ICV, 56 days post-dose): 19 % control; APOE RNA (% control) Cortex ([1]; 300 μg ICV, 168 days post-dose): 35 % control; APOE RNA (% control) Cortex ([1]; 300 μg ICV, 342 days post-dose): 68 % control; APOE RNA (% control) Spinal Cord ([1]; 300 μg ICV, 56 days post-dose): 11 % control; APOE RNA (% control) Spinal Cord ([1]; 300 μg ICV, 168 days post-dose): 26 % control; APOE RNA (% control) Spinal Cord ([1]; 300 μg ICV, 342 days post-dose): 36 % control; APOE RNA (% UTC) 8,000 nM [2]: 4 % UTC; APOE RNA (% UTC) 20,000 nM [2]: 2 % UTC; IC50 [2]: 210 nM; APOE RNA (% control) Cortex ([3]; ICV dose 10 μg): 95 % control; APOE RNA (% control) Cortex ([3]; ICV dose 30 μg): 84 % control; APOE RNA (% control) Cortex ([3]; ICV dose 100 μg): 62 % control; APOE RNA (% control) Cortex ([3]; ICV dose 300 μg): 30 % control; APOE RNA (% control) Cortex ([3]; ICV dose 700 μg): 16 % control; ED 50 (μg) Cortex [3, 7]: 146.7 µg; APOE RNA (% control) Spinal Cord ([3]; spinal cord, ICV dose 10 μg): 51 % control; APOE RNA (% control) Spinal Cord ([3]; spinal cord, ICV dose 30 μg): 27 % control; APOE RNA (% control) Spinal Cord ([3]; spinal cord, ICV dose 100 μg): 13 % control; APOE RNA (% control) Spinal Cord ([3]; spinal cord, ICV dose 300 μg): 13 % control; APOE RNA (% control) Spinal Cord ([3]; spinal cord, ICV dose 700 μg): 18 % control
TezTeoGeoGksTdsGdzAdzAdzTds^mCdsTdsTdsTdsAdzTksTksAesAesAes^mCe (antisense eT[ms]eTeGkG*dT*dG[ms]dA[ms]dA[ms]dT*d[5mC]*dT*dT*dT*dA[ms]kT*kT*eA*eA*eA*e[5mC]) [Compound No. 1809814] | 55 % control | 57 % control | 71 % control | 68 % control | 90 % control | 95 % control | 52 % control | 39 % control | 43 % control | 57 % control | 54 % control | 84 % control | 102 % UTC | 95 % UTC | 95 % UTC | 88 % UTC | 71 % UTC | 49 % UTC | 19 % UTC | 31 % UTC | APOE RNA (% UTC) 8,000 nM [2]: 8 % UTC; APOE RNA (% UTC) 20,000 nM [2]: 13 % UTC; IC50 [2]: 540 nM; APOE RNA (% control) Cortex ([3]; ICV dose 10 μg): 97 % control; APOE RNA (% control) Cortex ([3]; ICV dose 30 μg): 85 % control; APOE RNA (% control) Cortex ([3]; ICV dose 100 μg): 72 % control; APOE RNA (% control) Cortex ([3]; ICV dose 300 μg): 47 % control; APOE RNA (% control) Cortex ([3]; ICV dose 700 μg): 37 % control; ED 50 (μg) Cortex [3, 7]: 309.5 µg; APOE RNA (% control) Spinal Cord ([3]; spinal cord, ICV dose 10 μg): 81 % control; APOE RNA (% control) Spinal Cord ([3]; spinal cord, ICV dose 30 μg): 60 % control; APOE RNA (% control) Spinal Cord ([3]; spinal cord, ICV dose 100 μg): 45 % control; APOE RNA (% control) Spinal Cord ([3]; spinal cord, ICV dose 300 μg): 29 % control; APOE RNA (% control) Spinal Cord ([3]; spinal cord, ICV dose 700 μg): 28 % control; ED 50 (μg) Spinal Cord ([3]; spinal cord, single ICV bolus, GraphPad Prism 10): 78.7 µg
